Assay results: US7834213B2, “Colorant compound and method of manufacturing the same as well as blue resist composition for use in color filter containing the same” (Canon Kabushiki Kaisha, priority 2005, dated 2010)

Experiments:
[1] = Evaluation of solubility of colorant compounds to cyclohexanone; assay type: physicochemical; conditions: rank A/B/C
[2] = Evaluation of spectral characteristics (UV visible absorption spectrum in cyclohexanone); assay type: physicochemical; conditions: for absorbance ratio: absorbance at largest absorption wavelength (500 to 650 nm) / absorbance at smallest absorption wavelength (400 to 500 nm), in cyclohexanone, room temperature; for λmax [nm]: absorption peak wavelength, dissolved in cyclohexanone, absorbance regulated to 2.0, room temperature
Method: The colorant compounds represented by the formula (10) was dissolved in cyclohexanone and regulated so as to show an absorbance of 2.0. […] The absorption peak wavelength (λmax [nm]) was determined from the spectrum obtained by the observation. The spectral characteristics of the colorant compound were evaluated by the absorbance ratio of the largest absorption wavelength of the spectrum in the range of 500 to 650 nm to the smallest absorption wavelength of the spectrum in the range of 400 to 500 nm (the absorbance at the largest absorption wavelength/the absorbance at the smallest absorption wavelength).
While the lightness can be evaluated by means of the Y value of the XYZ standard […] system established by CIE (Commission Internationale de l'Eclairage), the lightness was evaluated by means of the absorbance ratio in this example because the Y value can vary remarkably when the hue is shifted slightly.

Compound: CCCCC(CC)CN(CC(CC)CCCC)S(=O)(=O)c1cccc(CN(CC)c2ccc(C(=C3C=CC(=[N+](CC)Cc4cccc(S(=O)(=O)N(CC(CC)CCCC)CC(CC)CCCC)c4)C=C3)c3ccccc3S(=O)(=O)[O-])cc2)c1 (centres unmarked) [compound (10)]
- solubility [1]: A (The solubility to cyclohexanone is not lower than 10%.)
- absorbance ratio [2]: 433
- λmax [nm] [2]: 619 nm

Compound: CCCCNc1ccc(NCCCC)c2c1C(=O)c1ccccc1C2=O [compound (28), C. I. Solvent Blue 35, reference compound]
- absorbance ratio [2]: 77
- λmax [nm] [2]: 620 nm
